Experimental findings from ChEMBL document CHEMBL1201862, “PubChem BioAssay data set” (2004) are described below.

Structures are written as SMILES.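 In this assay, cells in 96-well plates receive the compound at five concentrations for 48 hours. Endpoints are linearly interpolated between the surrounding concentrations. At the GI50, growth is halved.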 The source made the active and inactive calls. Cut-off read from the data, not from the text of the source: active = GI50 up to about 1.1 µM and inactive = higher.

Some test systems named below: SNB-19; NCI-H226; KM12; SF-268; NCI-H460; SW-620; SK-MEL-5; MDA-MB-435; 786-0; OVCAR-3; MOLT-4; Malme-3M; UO-31; MDA-MB-231; A549; MCF7; NCI-H23; DU-145; NCI/ADR-RES; T47D.
Test in all cases: NCI anticancer screen, dose series, 48 h

`Cc1cc(C(=O)CSC(=S)SC(C)(C)C)ccc1Cl`: the GI50 with SNB-19 is 16 µM (inactive); with NCI-H226 it was 27 µM (inactive); in the assay on KM12 it was 20 µM (inactive); in the assay on SF-268, 18.2 µM (inactive); in the assay with NCI-H460 it was 14.7 µM (inactive); in the assay with SW-620 it was 23.2 µM (inactive). For the same molecule, the GI50 in the assay with SK-MEL-5 is 17.8 µM (inactive); in the assay with MDA-MB-435, 23.7 µM (inactive); in the assay on 786-0, 22.3 µM (inactive); in the assay with OVCAR-3, 16.4 µM (inactive); with MOLT-4 it was 13.8 µM (inactive); with Malme-3M, 16.8 µM (inactive). Also, the GI50 with UO-31 is 18.1 µM (inactive); in the assay with MDA-MB-231, 19.7 µM (inactive); in the assay with A549 it was 20.9 µM (inactive); with MCF7, 25.6 µM (inactive); in the assay with NCI-H23, 29.5 µM (inactive); with DU-145, 26.5 µM (inactive). The GI50 in the assay on NCI/ADR-RES was 19.8 µM (inactive).

For the molecule `CSc1ncnc2c1cnn2Cc1cn(CCCCO)nn1`, the GI50 with SNB-19, with NCI-H226, in the assay on KM12, in the assay on SF-268, in the assay with NCI-H460 and with SW-620 was > 100 µM (inactive) in each case. The GI50 with SK-MEL-5, in the assay with MDA-MB-435, in the assay on 786-0, in the assay on OVCAR-3, in the assay with MOLT-4 and with Malme-3M was > 100 µM (inactive) throughout. The GI50 in the assay on UO-31, with MDA-MB-231, in the assay on A549, in the assay on MCF7, with NCI-H23 and in the assay on DU-145 was > 100 µM (inactive) in each case. In the assay on T47D, the GI50 was > 100 µM (inactive).

Turning to `COc1cc(C(C)=O)cc(C(=O)N(C(C)C)C(C)C)c1[Si](C)(C)C`, the GI50 in the assay with SNB-19, in the assay on NCI-H226, in the assay with KM12, with SF-268, in the assay on NCI-H460 and in the assay on SW-620 was > 100 µM (inactive) each time. Besides, the GI50 in the assay on SK-MEL-5 was > 100 µM (inactive); in the assay with MDA-MB-435, > 100 µM (inactive); with 786-0, > 100 µM (inactive); in the assay on OVCAR-3, > 100 µM (inactive); in the assay with MOLT-4, 79.6 µM (inactive); in the assay on UO-31 it was > 100 µM (inactive). In addition, the GI50 is > 100 µM (inactive) with MDA-MB-231; 67.8 µM (inactive) in the assay on A549; > 100 µM (inactive) in the assay on MCF7; 52.8 µM (inactive) with NCI-H23; > 100 µM (inactive) with DU-145; > 100 µM (inactive) with T47D.

Regarding `CC(C)(C)c1cc(C(C)(C)C)c(SSc2c(C(C)(C)C)cc(C(C)(C)C)c(O)c2O)c(O)c1O`, the GI50 in the assay with SNB-19 is 11.7 µM (inactive); in the assay with NCI-H226, 15 µM (inactive); in the assay with KM12 it was 12.6 µM (inactive); in the assay on SF-268, 10.1 µM (inactive); with NCI-H460, 3.89 µM (inactive); with SW-620 it was 4.99 µM (inactive). Moreover, the GI50 is 11.7 µM (inactive) in the assay with SK-MEL-5; 4.3 µM (inactive) in the assay on MDA-MB-435; 6.4 µM (inactive) in the assay with 786-0; 2.67 µM (inactive) in the assay with MOLT-4; 21.4 µM (inactive) in the assay with Malme-3M; 6.18 µM (inactive) with UO-31. The GI50 with MDA-MB-231 is 14.7 µM (inactive); in the assay on A549, 6.75 µM (inactive); in the assay on MCF7, 10.3 µM (inactive); in the assay on NCI-H23, 10.3 µM (inactive); with NCI/ADR-RES it was 19.1 µM (inactive); with T47D it was 4.32 µM (inactive).

Turning to `CC1(C)/C(=N\NC(N)=O)C2CCC1C2` (stereo not drawn), the GI50 with SNB-19, in the assay with NCI-H226, in the assay on KM12, with SF-268, in the assay on NCI-H460 and in the assay with SW-620 was > 100 µM (inactive) throughout. Also, the GI50 in the assay with SK-MEL-5, in the assay on MDA-MB-435, in the assay on 786-0, in the assay with OVCAR-3, in the assay with MOLT-4 and in the assay on Malme-3M was > 100 µM (inactive) each time. The GI50 with UO-31, in the assay with A549, in the assay on MCF7, with NCI-H23, in the assay on DU-145 and with NCI/ADR-RES was > 100 µM (inactive) each time. Also, in the assay with T47D, the GI50 was > 100 µM (inactive).

As for `CC1CC(C)CC(C)C(O)/C(C#N)=C/C=C/CC(C2CCCC2C(=O)O)OC(=O)CC(O)C(C)C1` (stereo not drawn), the GI50 in the assay with SNB-19 was 0.0135 µM (active); with NCI-H226 it was 0.0158 µM (active); in the assay on SF-268 it was 0.0133 µM (active); in the assay on NCI-H460 it was 0.0284 µM (active); in the assay on SW-620 it was 0.0335 µM (active); in the assay with MDA-MB-435 it was < 0.01 µM (active). Also, the GI50 with 786-0 is < 0.0126 µM (active); in the assay on MOLT-4, 0.022 µM (active); with Malme-3M it was 0.0286 µM (active); with UO-31 it was 0.012 µM (active); in the assay with MDA-MB-231, < 0.0109 µM (active); in the assay on A549, 0.053 µM (active). Besides, the GI50 in the assay on MCF7 was 0.0102 µM (active); in the assay on DU-145 it was 0.111 µM (active); in the assay on T47D, < 0.01 µM (active).

For the molecule `CCCCCCCCCCCCCCCCOP(=O)(O)OCC(N)C(=O)O` (stereo not drawn), the GI50 in the assay with SNB-19 is 16.4 µM (inactive); in the assay on NCI-H226 it was 21 µM (inactive); in the assay with KM12, 12.6 µM (inactive); in the assay on SF-268, 18.5 µM (inactive); in the assay on NCI-H460 it was 17.1 µM (inactive); in the assay with SW-620, 17 µM (inactive). Also, the GI50 in the assay on SK-MEL-5 was 17.8 µM (inactive); with MDA-MB-435, 22.5 µM (inactive); with 786-0, 21.5 µM (inactive); in the assay with OVCAR-3 it was 17.4 µM (inactive); in the assay with MOLT-4, 11.5 µM (inactive); in the assay with Malme-3M it was 63.2 µM (inactive). In addition, the GI50 in the assay on UO-31 was 12.9 µM (inactive); with MDA-MB-231, 24.7 µM (inactive); in the assay on A549, 21.9 µM (inactive); with NCI-H23, 27 µM (inactive); with DU-145, 87.3 µM (inactive); in the assay with NCI/ADR-RES, 33.3 µM (inactive). Besides, in the assay on T47D, the GI50 is 28.2 µM (inactive).

On to `COc1cc(C2c3cc4c(cc3C(=O)C3CCC(=O)N32)OCO4)cc(OC)c1O` (stereo not drawn), for which the GI50 with SNB-19, in the assay on NCI-H226, with KM12, in the assay on NCI-H460, in the assay on SW-620 and in the assay with MDA-MB-435 was > 50 µM (inactive) in each case. Moreover, the GI50 in the assay on 786-0, in the assay on OVCAR-3, with MOLT-4, with UO-31, in the assay with A549 and in the assay with MCF7 was > 50 µM (inactive) in each case. Moreover, the GI50 in the assay with NCI-H23, with DU-145, with NCI/ADR-RES and in the assay with T47D was > 50 µM (inactive) in each case.

As for `O=[N+]([O-])/C(C(Cl)=C(Cl)Cl)=C(/Nc1ccccc1)SCc1ccccc1`, the GI50 was 25.2 µM (inactive) in the assay on SNB-19; 21.2 µM (inactive) in the assay on NCI-H226; 15.3 µM (inactive) in the assay with KM12; 20.5 µM (inactive) with SF-268; 19.8 µM (inactive) in the assay on NCI-H460; 26.7 µM (inactive) in the assay with SW-620. In addition, the GI50 with SK-MEL-5 was 21.6 µM (inactive); with MDA-MB-435, 17.8 µM (inactive); in the assay with 786-0, 17.3 µM (inactive); in the assay with OVCAR-3, 15 µM (inactive); in the assay on MOLT-4, 17 µM (inactive); with Malme-3M, 16.4 µM (inactive). Besides, the GI50 is 20.8 µM (inactive) in the assay on UO-31; 19.9 µM (inactive) with MDA-MB-231; 17.8 µM (inactive) in the assay with A549; 20.1 µM (inactive) in the assay with NCI-H23; 23.6 µM (inactive) in the assay with DU-145; 16.2 µM (inactive) in the assay on NCI/ADR-RES. Also, in the assay on T47D, the GI50 is 34.6 µM (inactive).

For the molecule `COc1ccc(N2C(=O)C(=O)N(c3ccccc3[N+](=O)[O-])C2=S)cc1`, the GI50 in the assay on SNB-19 is 44.6 µM (inactive); in the assay on NCI-H226, 28.2 µM (inactive); in the assay with KM12, 22.3 µM (inactive); in the assay with SF-268 it was 33.7 µM (inactive); in the assay on NCI-H460 it was 34.3 µM (inactive); in the assay with SW-620 it was 37.9 µM (inactive). Besides, the GI50 in the assay with SK-MEL-5 was 17.6 µM (inactive); in the assay on MDA-MB-435, 27.4 µM (inactive); with 786-0, 33 µM (inactive); in the assay on MOLT-4 it was 34.8 µM (inactive); in the assay on Malme-3M it was 36.8 µM (inactive); in the assay with UO-31 it was 34 µM (inactive). Besides, the GI50 is 20.4 µM (inactive) in the assay on MDA-MB-231; 38.5 µM (inactive) with A549; 21 µM (inactive) in the assay with NCI-H23; 38.4 µM (inactive) in the assay on DU-145; 23.5 µM (inactive) with NCI/ADR-RES; 22.6 µM (inactive) in the assay with T47D.

For the molecule `C[C@]12CC[C@@H]3c4cc(I)c(O)cc4CC[C@H]3[C@@H]1CC[C@@H]2O`, the GI50 with SNB-19 was 7.33 µM (inactive); with NCI-H226 it was 15.5 µM (inactive); with KM12, 3.27 µM (inactive); in the assay with SF-268, 9.38 µM (inactive); with NCI-H460, 3.64 µM (inactive); with SW-620, 3.58 µM (inactive). Also, the GI50 was 3.18 µM (inactive) with SK-MEL-5; 5.06 µM (inactive) with 786-0; 3.43 µM (inactive) in the assay with OVCAR-3; 5.42 µM (inactive) in the assay with MOLT-4; 9.89 µM (inactive) with Malme-3M; 5.74 µM (inactive) with UO-31. Also, the GI50 is 5.25 µM (inactive) in the assay with MDA-MB-231; 6.32 µM (inactive) in the assay with A549; 5.87 µM (inactive) in the assay on MCF7; 9.89 µM (inactive) in the assay with NCI-H23; 6.55 µM (inactive) in the assay with NCI/ADR-RES; 8.55 µM (inactive) in the assay with T47D.
